Each molecule was assayed against Tubulin beta chain (Bos taurus, UniProt Q6B856) (assay: Compound was evaluated for in vitro inhibitory activity against polymerization of tubulin into microtubules isolated from bovine brain at 1 mg/mL tubulin concentration).
Chain of Tubulin beta chain (Q6B856 whole entry): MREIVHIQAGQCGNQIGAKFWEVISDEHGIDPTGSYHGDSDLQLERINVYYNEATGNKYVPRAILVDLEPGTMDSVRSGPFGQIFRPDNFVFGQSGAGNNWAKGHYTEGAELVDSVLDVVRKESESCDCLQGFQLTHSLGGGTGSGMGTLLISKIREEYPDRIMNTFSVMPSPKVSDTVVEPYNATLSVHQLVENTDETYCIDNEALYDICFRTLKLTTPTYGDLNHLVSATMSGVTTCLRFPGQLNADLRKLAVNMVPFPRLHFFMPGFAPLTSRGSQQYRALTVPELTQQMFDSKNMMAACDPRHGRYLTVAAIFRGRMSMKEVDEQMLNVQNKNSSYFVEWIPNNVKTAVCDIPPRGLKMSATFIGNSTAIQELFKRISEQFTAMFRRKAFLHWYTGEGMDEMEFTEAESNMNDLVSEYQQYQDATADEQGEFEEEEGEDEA
Assay type: tissue-based
Molecule COc1cc(CCc2cccc(SC)c(=O)c2)cc(OC)c1OC has an IC50 of 12 µM. COc1cc(CCc2cccc(OC)c(=O)c2)cc(OC)c1OC was tested, and the IC50 was 8.6 µM. With COc1ccc(-c2ccc(OC)c(=O)cc2)c(OC)c1OC the IC50 was 2.5 µM.

Reference: ChEMBL document CHEMBL1151998, “Combretatroponeshybrids of combretastatin and colchicine. Synthesis and biochemical evaluation” (Bioorg Med Chem Lett, 1993)
